In publication PMC10353187, “Discovery of a new potent oxindole multi-kinase inhibitor among a series of designed 3-alkenyl-oxindoles with ancillary carbonic anhydrase inhibitory activity as antiproliferative agents” (BMC Chemistry, 2023):
Where two headings read alike, the source gives them in different places.

Tests used:
KM12 = test: NCI-60 single-dose antiproliferative assay (SRB); format: cell-based; details: Homo sapiens; 10 μM single dose; KM12, Colon cancer; read-out: Cell Growth inhibition Percent
Procedure: (§1) From the newly synthesized compounds, eleven compounds (4c, 4d, 5, 9a, 9b, 11a, 11b, 13b, 13c, 15b, and 15c) were selected by the National Cancer Institute (NCI) Developmental Therapeutics Program (DTP), Bethesda, Maryland, USA for the in vitro anti-proliferative activity evaluation. The selected compounds were examined at 10 μM dose against the NCI 60-cell line panel. This panel consists of nine cell line groups of leukemia, non-small cell lung carcinoma (NSCLC), melanoma, colon, CNS, ovarian, renal, prostate, and breast cancers. The results are reported as mean-graph of the percent growth relative to control and presented as percentage growth inhibition (GI%), furthermore, mean GI% of each compound over all panel cell lines was calculated (Table 1; Additional file 1; S3: In vitro biological activity).
(§2) From the newly synthesized compounds, eleven compounds were selected by the National Cancer Institute (NCI) Developmental Therapeutics Program (DTP), Bethesda, Maryland, USA for the in vitro anti-proliferative activity evaluation (For further details see supplementary materials).
(§3) NCI In-vitro Cancer Screening is a two-phase procedure that starts with the assessment of all compounds against the sixty NCI cell line panel depicting leukemia, NSCLC, CNS cancer, melanoma, prostate cancer, breast cancer, renal cancer, colon cancer and ovarian cancer cell lines at a single point of 10μM. The output from the single-dose screen is reportable as a mean graph.
(§4) The human tumor cell lines of the cancer screening panel were grown in RPMI 1640 medium containing 5% fetal bovine serum and 2 mM L-glutamine. For a typical screening experiment, cells were inoculated into 96 well microtiter plates in […] at plating densities ranging from 5000 to 40,000 cells/well depending on the doubling time of individual cell lines. After cell inoculation, the microtiter plates were incubated at 37 °C, 5% CO2, 95% air and 100% relative humidity for 24 h prior to addition of experimental drugs. After 24 h, two plates of each cell line were fixed in situ with trichloroacetic acid (TCA), to represent a measurement of the cell population for each cell line at the time of drug addition (Tz). Experimental drugs were solubilized in dimethyl sulfoxide at 400-fold the desired final maximum test concentration and stored frozen prior to use. At the time of drug addition, an aliquot of frozen concentrate was thawed and diluted to twice the desired final maximum test concentration with complete medium containing 50 µg/ml gentamicin. Aliquot of 100 µl of the drug dilution was added to the appropriate microtiter wells already containing 100 µl of medium, resulting in the required final drug concentration (10 µM). Triplicate wells were prepared for each individual dose. Following drug addition, the plates were incubated for an additional 48 h at 37 °C, 5% CO2, 95% air, and 100% relative humidity. For adherent cells, the assay was terminated by the addition of cold TCA. Cells were fixed in situ by the gentle addition of 50 µl of cold 50% (w/v) TCA (final concentration, 10% TCA) and incubated for 60 min at 4 °C. The supernatant was discarded, and the plates were washed five times with tap water and air dried. Sulforhodamine B (SRB) solution (100 µl) at 0.4% (w/v) in 1% acetic acid was added to each well, and plates were incubated for 10 min at room temperature. After staining, unbound dye was removed by washing five times with 1% acetic acid and the plates were air dried. Bound stain was subsequently solubilized with 10 mM trizma base, and the absorbance was read on an automated plate reader at a wavelength of 515 nm. For suspension cells, the methodology was the same except that the assay was terminated by fixing settled cells at the bottom of the wells by gently adding 50 µl of 80% TCA (final concentration, 16% TCA). […]

786-0 = test: NCI-60 single-dose antiproliferative assay (SRB); format: cell-based; details: Homo sapiens; 10 μM single dose; 786-0, Renal cancer; read-out: Cell Growth inhibition Percent
Procedure: as §1, §2, §3, §4

CAKI-1 = test: NCI-60 single-dose antiproliferative assay (SRB); format: cell-based; details: Homo sapiens; 10 μM single dose; CAKI-1, Renal cancer; read-out: Cell Growth inhibition Percent
Procedure: as §1, §2, §3, §4

K-562 = test: NCI-60 single-dose antiproliferative assay (SRB); format: cell-based; details: Homo sapiens, K562; 10 μM single dose; K-562, Leukemia; read-out: Cell Growth inhibition Percent
Procedure: as §1, §2, §3, §4

NCI-H23 = test: NCI-60 single-dose antiproliferative assay (SRB); format: cell-based; details: Homo sapiens; 10 μM single dose; NCI-H23, Non-small cell lung cancer; read-out: Cell Growth inhibition Percent
Procedure: as §1, §2, §3, §4

SR = test: NCI-60 single-dose antiproliferative assay (SRB); format: cell-based; details: Homo sapiens, 10 μM single dose, Leukemia, read-out: Cell Growth inhibition Percent
Procedure: as §1, §2, §3, §4

MCF7 = test: NCI-60 single-dose antiproliferative assay (SRB); format: cell-based; details: Homo sapiens; 10 μM single dose; MCF7, Breast cancer; read-out: Cell Growth inhibition Percent
Procedure: as §1, §2, §3, §4

T-47D = test: NCI-60 single-dose antiproliferative assay (SRB); format: cell-based; details: Homo sapiens, T47D, 10 μM single dose, Breast cancer, read-out: Cell Growth inhibition Percent
Procedure: as §1, §2, §3, §4

RPMI-8226 = test: NCI-60 single-dose antiproliferative assay (SRB); format: cell-based; details: Homo sapiens; 10 μM single dose; RPMI-8226, Leukemia; read-out: Cell Growth inhibition Percent
Procedure: as §1, §2, §3, §4

HOP-92 = test: NCI-60 single-dose antiproliferative assay (SRB); format: cell-based; details: Homo sapiens; 10 μM single dose; HOP-92, Non-small cell lung cancer; read-out: Cell Growth inhibition Percent
Procedure: as §1, §2, §3, §4

HL-60(TB) = test: NCI-60 single-dose antiproliferative assay (SRB); format: cell-based; details: Homo sapiens, 10 μM single dose, Leukemia, read-out: Cell Growth inhibition Percent
Procedure: as §1, §2, §3, §4

A498 = test: NCI-60 single-dose antiproliferative assay (SRB); format: cell-based; details: Homo sapiens; 10 μM single dose; A498, Renal cancer; read-out: Cell Growth inhibition Percent
Procedure: as §1, §2, §3, §4

SN12C = test: NCI-60 single-dose antiproliferative assay (SRB); format: cell-based; details: Homo sapiens, 10 μM single dose, Renal cancer, read-out: Cell Growth inhibition Percent
Procedure: as §1, §2, §3, §4

MDA-MB-231/ATCC = test: NCI-60 single-dose antiproliferative assay (SRB); format: cell-based; details: Homo sapiens, 10 μM single dose, Breast cancer, read-out: Cell Growth inhibition Percent
Procedure: as §1, §2, §3, §4

SK-MEL-5 = test: NCI-60 single-dose antiproliferative assay (SRB); format: cell-based; details: Homo sapiens; 10 μM single dose; SK-MEL-5, Melanoma; read-out: Cell Growth inhibition Percent
Procedure: as §1, §2, §3, §4

NCI-H522 = test: NCI-60 single-dose antiproliferative assay (SRB); format: cell-based; details: Homo sapiens; 10 μM single dose; NCI-H522, Non-small cell lung cancer; read-out: Cell Growth inhibition Percent
Procedure: as §1, §2, §3, §4

hCA I = hCA I (Homo sapiens, UniProt P00915); test: Stopped flow CO2 hydrase assay
hCA IX [1] = target: T1, hCA IX (Homo sapiens, UniProt Q16790); test: Stopped flow CO2 hydrase assay
hCA XII [2] = target: T2, hCA XII (Homo sapiens, UniProt O43570); test: Stopped flow CO2 hydrase assay
hCA II [3] = target: T3, hCA II (Homo sapiens, UniProt P00918); test: Stopped flow CO2 hydrase assay
UO-31 = test: NCI-60 single-dose antiproliferative assay (SRB); format: cell-based, human; details: Homo sapiens, UO-31, 10 μM single dose; UO-31, Renal cancer; read-out: Cell Growth inhibition Percent
Procedure: as §1, §2, §3, §4

VEGFRIII = details: cited from earlier work
PDGFR α = details: cited from earlier work
VEGFRII = details: cited from earlier work
FGFRI = details: read-out: IC50 FGFRI; cited from earlier work
VEGFRI = details: cited from earlier work
PDGF = details: Fig. 2, reported multi-kinase inhibitors; cited from earlier work
FGFRII = details: cited from earlier work
PDGFR β = details: Fig. 2, reported multi-kinase inhibitors; read-out: PDGFB IC50; cited from earlier work
VEGF = details: Fig. 2, reported multi-kinase inhibitors; cited from earlier work
[4] = cited from earlier work
hCA II [5] = target: T3, hCA II; design: made in house; method as in PMID 15499993, PMID 12678681, PMID 31313595, PMID 26745009; details: reported CAIs, Fig. 1; cited from earlier work
hCA IX [6] = target: T1, hCA IX; design: made in house; details: reported CAIs, Fig. 1; cited from earlier work
hCA XII [7] = target: T2, hCA XII; design: made in house; details: reported CAIs, Fig. 1; cited from earlier work

T2 sequence (O43570 25-354): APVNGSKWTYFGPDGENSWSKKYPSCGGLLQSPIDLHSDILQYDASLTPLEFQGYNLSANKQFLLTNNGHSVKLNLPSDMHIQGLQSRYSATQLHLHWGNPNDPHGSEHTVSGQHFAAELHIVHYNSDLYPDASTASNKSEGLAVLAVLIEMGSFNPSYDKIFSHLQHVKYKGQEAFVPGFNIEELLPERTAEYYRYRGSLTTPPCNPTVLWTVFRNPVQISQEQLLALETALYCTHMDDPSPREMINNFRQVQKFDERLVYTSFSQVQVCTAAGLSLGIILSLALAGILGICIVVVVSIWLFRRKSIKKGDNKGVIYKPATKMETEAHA
Chain of hCA I (P00915 whole entry): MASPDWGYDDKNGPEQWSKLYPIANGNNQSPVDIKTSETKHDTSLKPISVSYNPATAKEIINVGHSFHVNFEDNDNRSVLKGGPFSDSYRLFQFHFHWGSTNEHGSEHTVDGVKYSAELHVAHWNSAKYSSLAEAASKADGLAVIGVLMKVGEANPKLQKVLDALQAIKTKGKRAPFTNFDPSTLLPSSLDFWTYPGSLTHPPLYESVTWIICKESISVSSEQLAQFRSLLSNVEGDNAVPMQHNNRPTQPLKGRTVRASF

## O=C1Nc2ccccc2C1=CNc1ccc(C(=O)C=CNc2ccc(S(=O)(=O)Nc3ncccn3)cc2)cc1 [Compound 13b, 4-{[3-Oxo-3-(4-{[(2-oxoindolin-3-ylidene)methyl]amino}phenyl)prop-1-en-1-yl]amino}-N-(pyrimidin-2-yl)benzenesulfonamide]
KM12
  inhibition at 10 µM: 62.7%
786-0
  inhibition at 10 µM: 3.85%
CAKI-1
  inhibition at 10 µM: 5.62%
K-562
  inhibition at 10 µM: 2.89%
NCI-H23
  inhibition at 10 µM: 3.53%
SR
  inhibition at 10 µM: 17.9%
MCF7
  inhibition at 10 µM: 12.6%
T-47D
  inhibition at 10 µM: 6.91%
RPMI-8226
  inhibition at 10 µM: 13.6%
HOP-92
  inhibition at 10 µM: 6.38%
HL-60(TB)
  inhibition at 10 µM: 0.37%
A498
  inhibition at 10 µM: 1.46%
SN12C
  inhibition at 10 µM: 1.75%
MDA-MB-231/ATCC
  inhibition at 10 µM: 0.12%
SK-MEL-5
  inhibition at 10 µM: 1.85%
NCI-H522
  inhibition at 10 µM: 1.35%
hCA I
  Ki: > 10 µM
other
  melting point: 290 to 294 °C
hCA IX [1]
  Ki: > 10 µM
hCA XII [2]
  Ki: > 10 µM
hCA II [3]
  Ki: > 10 µM
UO-31
  inhibition at 10 µM: 7.6%

## COC(=O)c1ccc2c(c1)NC(=O)/C2=C(\Nc1ccc(N(C)C(=O)CN2CCN(C)CC2)cc1)c1ccccc1 [Nintedanib]
VEGFRIII
  IC50: 0.013 µM
PDGFR α
  IC50: 0.059 µM
VEGFRII; read-out: IC50 VEGFRII
  IC50: 0.013 µM
FGFRI
  IC50: 0.069 µM
VEGFRI; read-out: IC50 VEGFRI
  IC50: 0.034 µM
PDGF
  IC50: 0.059 µM
FGFRII
  IC50: 0.037 µM

## CNC(=O)c1cc(Oc2ccc(NC(=O)Nc3ccc(Cl)c(C(F)(F)F)c3)c(F)c2)ccn1 [Regorafenib]
PDGFR β
  IC50: 0.022 µM
VEGFRII; Fig. 2, reported multi-kinase inhibitors, read-out: VEGFII IC50
  IC50: 0.042 µM
VEGFRI; Fig. 2, reported multi-kinase inhibitors, read-out: VEGFI IC50
  IC50: 0.013 µM

## CCN(CC)CCNC(=O)c1c(C)[nH]c(/C=C2\C(=O)Nc3ccc(F)cc32)c1C [Sunitinib]
VEGF
  IC50: 0.08 µM
PDGF
  IC50: 0.002 µM
[4]; Fig. 2, read-out: cytotoxicity average IC50
  IC50: 8.11 µM

## COc1ccc(C2=NN(c3nc4ccccc4s3)C(c3cc(OC)c(OC)c(OC)c3)C2)cc1 (stereo not drawn) [VIII]
hCA II [5]
  Ki: 22.7 µM
[4]; Fig. 1
  Tumor selectivity (TS): 29.3
[4]; Fig. 1, read-out: Cytotoxicity average IC50
  IC50: 18.7 µM

## O=S(=O)(Nc1nc2ccc(Cl)cc2s1)c1ccc(F)cc1 [VI]
hCA IX [6]
  Ki: 0.95 µM
hCA XII [7]
  Ki: 0.085 µM

## O=C(O)c1cc(Sc2ccccn2)cc([N+](=O)[O-])c1 [V]
hCA IX [6]
  Ki: 0.018 µM
hCA XII [7]
  Ki: 0.0821 µM
